Source: patent US20250066350A1, “AROMATIC HETEROCYCLE-SUBSTITUTED COMPOUNDS, AND PREPARATION METHOD THEREFOR AND USE THEREOF” (Innovstone Therapeutics Limited, priority 2021, published 2025)

What was measured:
[1] = biological target: ATR enzyme (Homo sapiens (Human), UniProt Q13535); experiment: Inhibitory effect on ATR enzyme (HTRF, phospho-P53); assay type: biochemical; details: 90 minutes incubation, 150 nM ATP final; read-out: IC50 for ATR enzyme inhibition
Protocol: Test Example 1. Inhibitory Effect of Compounds of the Present Invention on ATR Enzyme
The following method is used to determine the inhibitory effect of the compounds of the present invention on the ATR enzyme. The experimental method is briefly described as follows:
1. ATR enzyme (Eurofins Pharma Discovery Services, 14-953M)
2. GST-tagged P53 protein (Eurofins Pharma Discovery Services, 14-952M)
15 nM ATR enzyme, 80 nM P53 protein, 300 nM ATP (the final concentrations were 40 nM and 150 nM, respectively), and small molecule compounds of various concentrations (the final concentrations (nM) of the ten points were 2985.0, 895.5, 298.5, 110.56, 33.17, 11.06, 4.09, 1.23, 0.41 and 0.15, respectively, and the final dimethyl sulfoxide concentration was 0.498%) were mixed and incubated at room temperature for 90 minutes. 10 μL of 2× cocktail buffer was added to the mixture of ATR, compound and substrate in the assay plate (anti-phospho-p53-Eu and anti-GST-d2 were diluted in the assay buffer). The resulting mixture was centrifuged at 1000 rpm for 30 seconds, and incubated overnight at 4° C. in the dark (a total of 20 μl in each well). The FRET signal (endpoint) was measured in the Envision instrument (HTRF 665/612 ratio was calculated at 665 nm emission and 612 nm emission). Data were processed using GraphPad software.
The inhibitory activity of the compounds of the present invention on the ATR enzyme can be determined by the test described above, and the measured IC50 values are shown in Table 1.

[2] = tested on: SNU-601 cells; experiment: SNU-601 cell proliferation experiment (CellTiter-Glo, intracellular ATP); assay type: cell-based; details: 120 h; SNU-601 human gastric cancer cells, 5 days; read-out: IC50 for inhibition of SNU-601 cell proliferation
Protocol: The following method is used to evaluate the inhibitory effect of the compounds of the present disclosure on SNU-601 cell proliferation according to the IC50 values by means of detecting the intracellular ATP content. The experimental method is briefly described as follows:
1. SNU-601, human gastric cancer tumor cells (Co-bioer, CBP60507)
SNU-601 cells were cultured in RPMI 1640 medium containing 10% FBS and passaged 2 to 3 times a week at a split ratio of 1:5 or 1:10. During passage, the cells were trypsinized and transferred to a centrifuge tube. The tube was centrifuged at 1000 rpm for 5 minutes, the supernatant medium was discarded, and fresh medium was added to resuspend the cells. 195 μL of cell suspension at a density of 5.128×10^3 cells/mL was added to a 96-well cell culture plate, and 200 μL of complete medium only was added to the periphery wells of the 96-well plate. The culture plate was incubated in an incubator for 24 hours (37° C., 5% CO2).
The sample to be tested was diluted to 2 mM with DMSO, diluted 3-fold serially to 10 concentrations. Blank and control wells were set. 10 μL of the solution containing the compound to be tested prepared in gradient concentrations was added to 50 μL of fresh medium. 5 μL of the above culture medium solution containing the compound was added to the culture plate. The culture plate was incubated in an incubator for 5 days (37° C., 5% CO2). 50 μL of CellTiter-Glo reagent was added to each well of the 96-well cell culture plate after discarding 100 μL/well, and the plate was shaken at room temperature in the dark for 10 min. The chemiluminescent signal values were read in PHERAstar, and data were processed using GraphPad software.
The inhibitory effect of the compounds of the present invention on SNU-601 cell proliferation can be determined by the test described above, and the measured IC50 values are shown in Table 3.

ATR enzyme, sequence (Q13535 whole entry): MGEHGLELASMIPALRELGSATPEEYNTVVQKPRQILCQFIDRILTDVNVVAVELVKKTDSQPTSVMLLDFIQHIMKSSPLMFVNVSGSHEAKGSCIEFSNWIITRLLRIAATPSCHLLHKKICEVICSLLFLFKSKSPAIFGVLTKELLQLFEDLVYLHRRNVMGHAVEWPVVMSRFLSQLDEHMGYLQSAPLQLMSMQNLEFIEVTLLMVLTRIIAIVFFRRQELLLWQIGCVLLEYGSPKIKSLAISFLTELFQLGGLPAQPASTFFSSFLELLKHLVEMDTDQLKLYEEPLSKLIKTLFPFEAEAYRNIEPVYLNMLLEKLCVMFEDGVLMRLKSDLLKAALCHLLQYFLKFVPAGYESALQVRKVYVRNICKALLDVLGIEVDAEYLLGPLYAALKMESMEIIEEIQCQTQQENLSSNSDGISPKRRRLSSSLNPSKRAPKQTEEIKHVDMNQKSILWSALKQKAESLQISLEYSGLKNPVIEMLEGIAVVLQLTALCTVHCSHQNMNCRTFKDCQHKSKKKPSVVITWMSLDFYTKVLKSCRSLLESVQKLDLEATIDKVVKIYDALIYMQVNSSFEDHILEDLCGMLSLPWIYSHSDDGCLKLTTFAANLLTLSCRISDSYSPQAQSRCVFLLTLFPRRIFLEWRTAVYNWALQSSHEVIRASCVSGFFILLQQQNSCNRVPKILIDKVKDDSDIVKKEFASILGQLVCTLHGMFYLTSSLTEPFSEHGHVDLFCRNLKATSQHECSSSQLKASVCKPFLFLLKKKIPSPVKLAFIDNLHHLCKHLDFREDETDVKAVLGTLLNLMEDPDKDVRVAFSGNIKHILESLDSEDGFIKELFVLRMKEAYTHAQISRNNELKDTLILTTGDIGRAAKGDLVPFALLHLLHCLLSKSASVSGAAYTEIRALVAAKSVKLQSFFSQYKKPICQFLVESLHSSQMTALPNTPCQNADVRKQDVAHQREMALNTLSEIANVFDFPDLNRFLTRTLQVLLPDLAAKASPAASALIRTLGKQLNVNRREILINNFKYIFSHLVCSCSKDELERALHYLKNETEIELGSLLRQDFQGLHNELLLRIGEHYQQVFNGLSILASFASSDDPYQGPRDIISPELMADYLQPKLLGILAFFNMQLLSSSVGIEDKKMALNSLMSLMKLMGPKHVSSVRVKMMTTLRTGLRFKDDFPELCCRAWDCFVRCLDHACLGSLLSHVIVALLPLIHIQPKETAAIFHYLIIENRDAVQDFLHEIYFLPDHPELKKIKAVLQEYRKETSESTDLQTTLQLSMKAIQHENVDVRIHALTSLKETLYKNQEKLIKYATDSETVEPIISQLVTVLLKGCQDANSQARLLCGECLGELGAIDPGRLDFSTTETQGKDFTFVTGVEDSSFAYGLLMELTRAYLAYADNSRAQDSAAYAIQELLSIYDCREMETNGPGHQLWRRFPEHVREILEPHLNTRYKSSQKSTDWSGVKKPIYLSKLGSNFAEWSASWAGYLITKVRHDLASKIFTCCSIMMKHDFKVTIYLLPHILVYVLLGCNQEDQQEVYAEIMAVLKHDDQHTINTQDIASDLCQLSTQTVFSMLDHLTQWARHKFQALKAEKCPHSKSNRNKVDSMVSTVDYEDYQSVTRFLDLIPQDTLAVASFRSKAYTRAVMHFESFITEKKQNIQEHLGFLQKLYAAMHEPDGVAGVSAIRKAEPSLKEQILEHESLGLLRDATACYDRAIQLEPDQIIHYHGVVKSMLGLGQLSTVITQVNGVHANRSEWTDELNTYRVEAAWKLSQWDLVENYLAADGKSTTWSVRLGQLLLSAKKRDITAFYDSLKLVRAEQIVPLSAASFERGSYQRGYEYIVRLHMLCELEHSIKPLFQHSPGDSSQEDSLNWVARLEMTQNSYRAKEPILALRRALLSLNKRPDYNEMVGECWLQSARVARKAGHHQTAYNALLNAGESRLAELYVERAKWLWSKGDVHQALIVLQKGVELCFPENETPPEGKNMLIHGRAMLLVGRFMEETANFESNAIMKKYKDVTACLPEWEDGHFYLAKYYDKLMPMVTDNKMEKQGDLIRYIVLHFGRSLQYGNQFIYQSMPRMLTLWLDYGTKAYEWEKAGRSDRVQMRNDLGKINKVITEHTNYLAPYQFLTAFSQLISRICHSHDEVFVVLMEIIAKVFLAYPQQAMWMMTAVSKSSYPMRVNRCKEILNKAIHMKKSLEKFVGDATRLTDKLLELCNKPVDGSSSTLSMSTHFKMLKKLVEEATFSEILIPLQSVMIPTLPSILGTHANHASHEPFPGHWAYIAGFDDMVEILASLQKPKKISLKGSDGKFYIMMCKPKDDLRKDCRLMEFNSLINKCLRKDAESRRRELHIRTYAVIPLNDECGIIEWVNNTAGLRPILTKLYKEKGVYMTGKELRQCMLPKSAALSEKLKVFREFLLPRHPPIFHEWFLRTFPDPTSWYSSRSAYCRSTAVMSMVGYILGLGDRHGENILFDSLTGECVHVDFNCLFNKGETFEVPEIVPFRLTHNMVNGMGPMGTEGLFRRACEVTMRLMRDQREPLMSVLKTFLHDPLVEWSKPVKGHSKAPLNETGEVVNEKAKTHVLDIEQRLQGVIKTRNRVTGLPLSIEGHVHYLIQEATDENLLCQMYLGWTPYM
ATR enzyme, sequence (Q8WXE1 whole entry partner): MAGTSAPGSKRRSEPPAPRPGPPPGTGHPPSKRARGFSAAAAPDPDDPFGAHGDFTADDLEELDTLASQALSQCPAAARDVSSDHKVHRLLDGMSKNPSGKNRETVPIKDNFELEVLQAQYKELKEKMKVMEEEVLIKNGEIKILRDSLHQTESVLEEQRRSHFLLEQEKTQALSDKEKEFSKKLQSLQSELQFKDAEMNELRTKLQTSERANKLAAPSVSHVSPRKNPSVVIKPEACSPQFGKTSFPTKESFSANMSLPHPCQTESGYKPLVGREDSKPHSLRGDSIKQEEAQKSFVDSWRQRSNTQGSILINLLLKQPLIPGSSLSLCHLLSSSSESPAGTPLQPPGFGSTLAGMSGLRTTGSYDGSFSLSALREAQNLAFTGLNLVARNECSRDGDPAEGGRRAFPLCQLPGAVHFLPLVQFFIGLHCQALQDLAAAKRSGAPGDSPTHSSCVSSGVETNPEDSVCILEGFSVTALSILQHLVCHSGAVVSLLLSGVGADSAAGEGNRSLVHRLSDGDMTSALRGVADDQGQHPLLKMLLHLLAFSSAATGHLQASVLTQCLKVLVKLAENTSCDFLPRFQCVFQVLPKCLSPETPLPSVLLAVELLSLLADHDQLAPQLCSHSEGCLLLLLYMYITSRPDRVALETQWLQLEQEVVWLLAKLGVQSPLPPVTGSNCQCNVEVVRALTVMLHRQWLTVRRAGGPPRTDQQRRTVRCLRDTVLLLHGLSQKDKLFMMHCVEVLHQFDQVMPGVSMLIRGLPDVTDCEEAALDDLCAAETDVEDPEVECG

IC50 [1] [µM]	IC50 [2] [µM]	SMILES
≤ 0.01		C[C@@H]1COCCN1c1cc(C2CN(c3ccnn3C)C2)c2cnn(-c3cc[nH]n3)c2n1 [Example 269]
	0.01 to 0.1	C[C@@H]1COCCN1c1cc(-c2ccc(-c3ccnn3C)cc2F)c2cnn(-c3cc[nH]n3)c2n1 [Example 258]
0.01 to 0.05		C[C@@H]1COCCN1c1cc(C#Cc2ccnc3[nH]ccc23)c2cnn(-c3cc[nH]n3)c2n1 [Example 77]
	0.01 to 0.1	C[C@@H]1COCCN1c1cc(-c2ccc(N3CCCCC3=O)c(F)c2)c2cnn(-c3cc[nH]n3)c2n1 [Example 191]
≤ 0.01		Cc1cc(-c2cc(N3CCOC[C@H]3C)nc3c2cnn3-c2ccn[nH]2)cc(C)c1N(C)C(=O)c1ccncc1 [Example 184]
≤ 0.01		C#CC1CC=C(c2cc(N3CCOC[C@H]3C)nc3c2cnn3-c2cc[nH]n2)CC1 (some centres unmarked) [Example 201]
≤ 0.01		C[C@@H]1COCCN1c1cc(C#CC2CCCOC2)c2cnn(-c3ccn[nH]3)c2n1 (some centres unmarked) [Example 210]
0.01 to 0.05		C[C@@H]1COCCN1c1cc(N2CC(c3ccn(C)n3)C2)c2cnn(-c3cc[nH]n3)c2n1 [Example 267]
	0.01 to 0.1	C[C@@H]1COCCN1c1cc(-c2ccc(NC(=O)C3CCOCC3)cc2)c2cnn(-c3cc[nH]n3)c2n1 [Example 155]
≤ 0.01		C#CC1CCC(O)(c2cc(N3CCOC[C@H]3C)nc3c2cnn3-c2cc[nH]n2)C1 (some centres unmarked) [Example 270]
0.01 to 0.05		C[C@@H]1COCCN1c1cc(C#CC2(O)CCC3(CCOCC3)CC2)c2cnn(-c3ccn[nH]3)c2n1 [Compound 14, (R)-9-((6-(3-methylmorpholinyl)-1-(1H-pyrazol-5-yl)-1H-pyrazole[3,4-b]pyridin-4-yl)ethynyl)-3-oxaspiro[5.5]undecan-9-ol]
0.01 to 0.05		C[C@@H]1COCCN1c1cc(C#CC2(O)CCN(c3cccc(F)c3)CC2)c2cnn(-c3ccn[nH]3)c2n1 [Compound 12, (R)-1-(3-fluorophenyl)-4-((6-(3-methylmorpholinyl)-1-(1H-pyrazolyl-5-yl)-1H-pyrazolyl[3,4-b]pyridin-4-yl)ethynyl)piperidin-4-ol]
0.01 to 0.05		C[C@@H]1COCCN1c1cc(C#CC(=O)N2CC(O)C2)c2cnn(-c3cc[nH]n3)c2n1 [Example 86]
	0.01 to 0.1	C[C@@H]1COCCN1c1cc(-c2ccc(N3CCCCC3=O)nc2)c2cnn(-c3cc[nH]n3)c2n1 [Example 167]
	0.01 to 0.1	C[C@@H]1COCCN1c1cc(C#CC2CCCNC2)c2cnn(-c3ccn[nH]3)c2n1 (some centres unmarked) [Example 209]
0.01 to 0.05		C[C@@H]1COCCN1c1cc(-c2cc(NC(=O)C3CC3)[nH]n2)c2cnn(-c3cc[nH]n3)c2n1 [Example 253]
0.01 to 0.05		C[C@@H]1COCCN1c1cc(N2CC(c3ccnn3C)C2)c2cnn(-c3cc[nH]n3)c2n1 [Example 266]
0.01 to 0.05		CC(=O)N1CCC(C#Cc2cc(N3CCOC[C@H]3C)nc3c2cnn3-c2cc[nH]n2)C1 (some centres unmarked) [Example 80]
0.01 to 0.05		C#Cc1cc(N2CCOC[C@H]2C)nc2c1cnn2-c1cc[nH]n1 [Example 17]
0.01 to 0.05		C[C@@H]1COCCN1c1cc(C#CCN2CC3(CNC3)C2)c2cnn(-c3cc[nH]n3)c2n1 [Example 205]
≤ 0.01		C[C@@H]1COCCN1c1cc(C#CC2(O)COC2)c2cnn(-c3cc[nH]n3)c2n1 [Example 84]
0.01 to 0.05		C[C@@H]1COCCN1c1cc(C#CCN(C)C)c2cnn(-c3cc[nH]n3)c2n1 [Example 18, (R)-N, N-Dimethyl-3-(6-(3-methylmorpholine)-1-(1H-pyrazol-3-yl)-1H-pyrazoline[3,4-b]pyridin-4-yl)propyl-2-yn-1-amine]
0.01 to 0.05		C[C@@H]1COCCN1c1cc(-c2ccc(N(C)C(=O)N3CCCC3)nc2)c2cnn(-c3cc[nH]n3)c2n1 [Example 227]
≤ 0.01		C#CC1CCC(c2cc(N3CCOC[C@H]3C)nc3c2cnn3-c2ccn[nH]2)CC1 (stereo partly drawn) [Example 202, (R)-4-(4-(4-ethynylcyclohexyl)-1-(1H-pyrazol-5-yl)-1H-pyrazolo[3,4-b]pyridin-6-yl)-3-methylmorpholine]
≤ 0.01		C[C@@H]1COCCN1c1cc(C#Cc2c[nH]cn2)c2cnn(-c3cc[nH]n3)c2n1 [Example 78]
0.01 to 0.05		C[C@@H]1COCCN1c1cc(C2CN(C(=O)NC3CC3)C2)c2cnn(-c3cc[nH]n3)c2n1 [Example 268]

Continued, molecule first:

SMILES	IC50 [1] [µM]	IC50 [2] [µM]
C[C@@H]1COCCN1c1cc(-c2ccc(N3CCCC3=O)cc2)c2cnn(-c3cc[nH]n3)c2n1 [Example 212]	≤ 0.01	
C[C@@H]1COCCN1c1cc(-c2ccc(NC(=O)NC3CC4CCC(C3)N4)cc2)c2cnn(-c3cc[nH]n3)c2n1 (some centres unmarked) [Example 231]	≤ 0.01	
C[C@@H]1COCCN1c1cc(-c2ccc(NC(=O)c3ccccc3)cc2)c2cnn(-c3cc[nH]n3)c2n1 [Example 163]		0.01 to 0.1
COc1cc(NC(=O)N2CCCC2)ncc1-c1cc(N2CCOC[C@H]2C)nc2c1cnn2-c1cc[nH]n1 [Example 248]	0.01 to 0.05	
CC(=O)Nc1ccccc1-c1cc(N2CCOC[C@H]2C)nc2c1cnn2-c1cc[nH]n1 [Example 220]	0.01 to 0.05	
C[C@@H]1COCCN1c1cc(-c2ccc(N3CCCCCC3=O)cc2)c2cnn(-c3cc[nH]n3)c2n1 [Example 153]		0.01 to 0.1
C[C@@H]1COCCN1c1cc(-c2ccc(NC(=O)C34CC5CC(CC(C5)C3)C4)cc2)c2cnn(-c3cc[nH]n3)c2n1 [Example 232]	0.01 to 0.05	
C[C@@H]1COCCN1c1cc(-c2ccc(N3CC4CCC(O4)C3=O)cc2)c2cnn(-c3cc[nH]n3)c2n1 (some centres unmarked) [Example 65]		0.01 to 0.1
C[C@@H]1COCCN1c1cc(-c2ccc(N(C)C(=O)N3CCCC3)cc2F)c2cnn(-c3cc[nH]n3)c2n1 [Example 192]	≤ 0.01	
C[C@@H]1COCCN1c1cc(-c2ccc(NC(=O)c3cccnc3)cc2F)c2cnn(-c3cc[nH]n3)c2n1 [Example 195]		0.01 to 0.1
C[C@@H]1COCCN1c1cc(-c2ccc(N(C)C(=O)N3CCCC3)cc2)c2cnn(-c3cc[nH]n3)c2n1 [Example 223]	≤ 0.01	
C[C@@H]1COCCN1c1cc(-c2ccc(NC(=O)N3CCCC3)cn2)c2cnn(-c3cc[nH]n3)c2n1 [Example 249]	≤ 0.01	
C[C@@H]1COCCN1c1cc(-c2ccc(NC(=O)CCO)cc2)c2cnn(-c3cc[nH]n3)c2n1 [Example 152]	≤ 0.01	
CNC(=O)N(C)c1ccc(-c2cc(N3CCOC[C@H]3C)nc3c2cnn3-c2cc[nH]n2)cc1 [Example 215]		0.01 to 0.1
C[C@@H]1COCCN1c1cc(-c2ccc(N3CCCCC3=O)c(C#N)c2)c2cnn(-c3cc[nH]n3)c2n1 [Example 169]		0.01 to 0.1
C[C@@H]1COCCN1c1cc(-c2ccc(N(C)C(=O)N3CCCCC3)cc2)c2cnn(-c3cc[nH]n3)c2n1 [Example 230]	0.01 to 0.05	
COc1cc(-c2cc(N3CCOC[C@H]3C)nc3c2cnn3-c2cc[nH]n2)ncc1NC(=O)N1CCCC1 [Example 247]	0.01 to 0.05	
C[C@@H]1COCCN1c1cc(-c2ccc(N3C(=O)CCCC3CO)cc2)c2cnn(-c3cc[nH]n3)c2n1 (some centres unmarked) [Example 60]	≤ 0.01	
C[C@@H]1COCCN1c1cc(-c2ccc(NC(=O)N3CCCC3)cc2)c2cnn(-c3cc[nH]n3)c2n1 [Example 207]		0.01 to 0.1
C[C@@H]1COCCN1c1cc(-c2ccc3c(c2)CCCN3C(=O)c2cccnc2)c2cnn(-c3cc[nH]n3)c2n1 [Example 225]	≤ 0.01	
C[C@@H]1COCCN1c1cc(-c2ccc(N3CCCCC3=O)cc2C(F)(F)F)c2cnn(-c3cc[nH]n3)c2n1 [Example 242]		0.01 to 0.1
C[C@@H]1COCCN1c1cc(-c2ccc(N3CC4(CCN(Cc5ccccc5)C4)CC3=O)cc2)c2cnn(-c3cc[nH]n3)c2n1 (some centres unmarked) [Example 203]	≤ 0.01	
C[C@@H]1COCCN1c1cc(-c2ccc(NC(=O)N3CCCCC3)cc2)c2cnn(-c3cc[nH]n3)c2n1 [Example 229]	≤ 0.01	
C[C@@H]1COCCN1c1cc(-c2ccc(NC(=O)C3CNC3)cc2)c2cnn(-c3cc[nH]n3)c2n1 [Example 156]	≤ 0.01	
